The values that follow come from US8569344B2, “N-piperidinyl acetamide derivatives as calcium channel blockers” (Zalicus Pharmaceuticals Ltd., priority 2008, dated 2013).

T1 sequence (O95180 whole entry): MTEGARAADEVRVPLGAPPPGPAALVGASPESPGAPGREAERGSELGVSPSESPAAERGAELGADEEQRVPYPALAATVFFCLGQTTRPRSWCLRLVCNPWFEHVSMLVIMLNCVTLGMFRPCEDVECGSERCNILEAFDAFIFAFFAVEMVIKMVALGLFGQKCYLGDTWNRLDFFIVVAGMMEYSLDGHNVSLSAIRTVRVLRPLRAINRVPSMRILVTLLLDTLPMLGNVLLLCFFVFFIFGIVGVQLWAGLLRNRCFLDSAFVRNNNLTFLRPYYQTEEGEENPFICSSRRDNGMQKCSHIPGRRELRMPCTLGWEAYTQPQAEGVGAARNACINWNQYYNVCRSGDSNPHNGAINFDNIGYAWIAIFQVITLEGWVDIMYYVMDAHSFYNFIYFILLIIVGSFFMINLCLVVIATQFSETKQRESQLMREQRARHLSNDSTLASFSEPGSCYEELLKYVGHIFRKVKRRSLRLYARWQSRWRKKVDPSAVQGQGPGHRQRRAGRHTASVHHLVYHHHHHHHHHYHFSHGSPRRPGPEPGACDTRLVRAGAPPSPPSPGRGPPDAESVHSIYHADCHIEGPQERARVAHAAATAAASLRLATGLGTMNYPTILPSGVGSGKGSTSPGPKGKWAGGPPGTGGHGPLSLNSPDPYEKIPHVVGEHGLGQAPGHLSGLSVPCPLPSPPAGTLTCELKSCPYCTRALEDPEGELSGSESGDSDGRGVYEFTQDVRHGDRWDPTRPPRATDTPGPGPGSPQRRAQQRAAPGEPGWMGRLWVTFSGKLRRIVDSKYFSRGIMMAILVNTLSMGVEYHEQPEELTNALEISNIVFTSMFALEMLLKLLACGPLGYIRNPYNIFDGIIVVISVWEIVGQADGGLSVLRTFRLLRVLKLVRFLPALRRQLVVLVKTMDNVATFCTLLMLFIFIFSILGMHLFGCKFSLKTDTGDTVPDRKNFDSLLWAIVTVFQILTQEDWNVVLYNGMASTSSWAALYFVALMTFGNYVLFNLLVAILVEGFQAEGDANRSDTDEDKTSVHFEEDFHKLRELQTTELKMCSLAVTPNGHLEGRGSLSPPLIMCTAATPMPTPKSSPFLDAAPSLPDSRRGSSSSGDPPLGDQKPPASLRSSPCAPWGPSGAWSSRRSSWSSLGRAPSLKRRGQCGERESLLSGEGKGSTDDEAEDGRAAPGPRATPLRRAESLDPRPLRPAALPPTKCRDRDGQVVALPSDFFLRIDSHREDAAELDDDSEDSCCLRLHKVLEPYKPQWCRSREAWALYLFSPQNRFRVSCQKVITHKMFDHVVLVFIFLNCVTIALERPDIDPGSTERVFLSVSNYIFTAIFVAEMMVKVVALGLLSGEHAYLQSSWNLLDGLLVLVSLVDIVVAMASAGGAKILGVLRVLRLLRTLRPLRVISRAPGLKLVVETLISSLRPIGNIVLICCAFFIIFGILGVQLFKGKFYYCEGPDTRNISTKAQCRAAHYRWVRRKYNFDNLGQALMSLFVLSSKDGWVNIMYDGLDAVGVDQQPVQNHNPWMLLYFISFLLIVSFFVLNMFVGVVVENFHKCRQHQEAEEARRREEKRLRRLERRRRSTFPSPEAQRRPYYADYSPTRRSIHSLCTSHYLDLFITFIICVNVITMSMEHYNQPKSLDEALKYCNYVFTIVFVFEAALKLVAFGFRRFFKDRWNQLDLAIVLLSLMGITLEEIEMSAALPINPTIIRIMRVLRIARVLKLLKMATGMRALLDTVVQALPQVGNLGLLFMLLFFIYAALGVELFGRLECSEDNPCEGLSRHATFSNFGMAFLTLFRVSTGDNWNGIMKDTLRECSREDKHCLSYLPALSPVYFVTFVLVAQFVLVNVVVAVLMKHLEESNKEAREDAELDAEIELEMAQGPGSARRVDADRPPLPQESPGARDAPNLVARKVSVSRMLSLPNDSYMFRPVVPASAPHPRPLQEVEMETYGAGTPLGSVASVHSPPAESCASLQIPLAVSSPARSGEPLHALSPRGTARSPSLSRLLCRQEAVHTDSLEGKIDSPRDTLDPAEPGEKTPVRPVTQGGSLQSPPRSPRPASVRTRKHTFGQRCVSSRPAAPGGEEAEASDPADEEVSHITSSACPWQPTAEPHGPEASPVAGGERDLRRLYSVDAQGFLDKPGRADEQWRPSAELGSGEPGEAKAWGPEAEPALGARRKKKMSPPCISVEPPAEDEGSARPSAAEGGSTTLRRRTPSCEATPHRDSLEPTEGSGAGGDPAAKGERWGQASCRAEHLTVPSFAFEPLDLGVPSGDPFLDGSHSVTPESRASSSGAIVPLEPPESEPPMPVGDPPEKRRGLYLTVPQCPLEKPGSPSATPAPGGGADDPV

The test concerns the target T1, human α1H T-type channels (Homo sapiens, UniProt O95180).
T1 construct: expressed in transfected cells; host or cells: HEK 293
The test can be described thus: T-type calcium channel block, whole cell patch clamp in HEK cells (α1H). The format is cell-based. Particulars: HEK cells, patch clamp, mainly non-inactivated protocol; values above 10 μM shown as 10 μM; read-out: T-type Calcium Channel Block α1H IC50. As to the method:
T-type calcium channel blocking activity was assayed in human embryonic kidney cells, HEK 293, stably transfected with the T-type calcium channel subunits. Briefly, cells were cultured in Dulbecco's modified eagle medium (DMEM) supplemented with 10% fetal bovine serum, 200 U/ml penicillin and 0.2 mg/ml streptomycin at 37° C. with 5% CO2. At 85% confluency cells were split with 0.25% trypsin/1 mM EDTA and plated at 10% confluency on glass coverslips. […] Fresh DMEM was supplied and the cells transferred to 28° C./5% CO2. Cells were incubated for 1 to 2 days prior to whole cell recording.
Standard patch-clamp techniques were employed to identify blockers of T-type currents. Briefly, previously described HEK cell lines stably expressing human α1G, α1H and α1I T-type channels were used for all the recordings (passage #: 4-20, 37° C., 5% CO2). Whole cell patch clamp experiments were performed using an Axopatch 200B amplifier (Axon Instruments, Burlingame, Calif.) linked to a personal computer equipped with pCLAMP software. Data were analyzed using Clampfit (Axon Instruments) and SigmaPlot 4.0 (Jandel Scientific). To obtain T-type currents, plastic dishes containing semi-confluent cells were positioned on the stage of a ZEISS AXIOVERT S100 microscope after replacing the culture medium with external solution (see below). Whole-cell patches were obtained using pipettes (borosilicate glass with filament, O.D.: 1.5 mm, I.D.: 0.86 mm, 10 cm length), fabricated on a SUTTER P-97 puller with resistance values of ˜5 MΩ (see below for internal solution).
In the non-inactivating protocol, the holding potential is set at −110 mV and with a pre-pulse at −100 mV for 1 second prior to the test pulse at −40 mV for 50 ms.
Test compounds were dissolved in external solution, 0.1-0.01% DMSO. After ˜10 min rest, they were applied by gravity close to the cell using a WPI microfil tubing. The “non-inactivated” pre-pulse was used to examine the resting block of a compound. The “inactivated” protocol was employed to study voltage-dependent block. […] Values are shown in μM and values above 10 μM are simply represented as 10 μM.
In general terms: Patch clamp records ionic current or voltage across a cell membrane.
Regarding `CCC1CCCN1C(=O)CN1CCC(CNC(=O)c2cc(C(F)(F)F)cc(C(F)(F)F)c2)CC1` (stereo not drawn) [Compound 105, N-((1-(2-(2-ethylpyrrolidin-1-yl)-2-oxoethyl)piperidin-4-yl)methyl)-3,5-bis(trifluoromethyl)benzamide], the IC50 – broadly, the concentration that inhibits the measured activity by half – was 0.28 µM.

As to `O=C(NCC1CCN(CC(=O)N2CCC(CO)CC2)CC1)c1cc(C(F)(F)F)cc(C(F)(F)F)c1` [Compound 106, N-((1-(2-(4-(hydroxymethyl)piperidin-1-yl)-2-oxoethyl)piperidin-4-yl)methyl)-3,5-bis(trifluoromethyl)benzamide], the IC50 was 5.56 µM.

Consider `O=C(NCC1CCN(CC(=O)N2CCCC2C(F)(F)F)CC1)c1cc(C(F)(F)F)cc(C(F)(F)F)c1` (stereo not drawn) [Compound 107, N-((1-(2-oxo-2-(2-(trifluoromethyl)pyrrolidin-1-yl)ethyl)piperidin-4-yl)methyl)-3,5-bis(trifluoromethyl) benzamide], for which the IC50 worked out at 0.16 µM.

In the case of `O=C(NCC1CCN(CC(=O)N2CCC(C(F)(F)F)CC2)CC1)c1cc(C(F)(F)F)cc(C(F)(F)F)c1` [Compound 108, N-((1-(2-oxo-2-(4-(trifluoromethyl)piperidin-1-yl)ethyl)piperidin-4-yl)methyl)-3,5-bis(trifluoromethyl) benzamide], the IC50 was determined as 0.25 µM.

Take `O=C(CC1CCN(C(=O)C2(O)CCNCC2)CC1)Nc1cc(C(F)(F)F)cc(C(F)(F)F)c1` [Compound 157, N-(3,5-bis(trifluoromethyl)phenyl)-2-(1-(4-hydroxypiperidine-4-carbonyl)piperidin-4-yl)acetamide]: the IC50 was > 10 µM.

Take `O=C(NCC1CCN(C(=O)CN2CC[C@@H](O)C2)CC1)c1cc(C(F)(F)F)cc(C(F)(F)F)c1` [Compound 263, (R)-N-((1-(2-(3-hydroxypyrrolidin-1-yl)acetyl)piperidin-4-yl)methyl)-3,5-bis(trifluoromethyl)benzamide]: the 50% inhibitory concentration (IC50) was > 10 µM.

For `O=C(NCC1CCN(C(=O)CNC2CC2)CC1)c1cc(F)cc(C(F)(F)F)c1` [Compound 284, N-((1-(2-(cyclopropylamino)acetyl)piperidin-4-yl)methyl)-3-fluoro-5-(trifluoromethyl)benzamide], the IC50 was > 10 µM.

In the case of `O=C(NCC1CCN(CCN2CCCC2=O)CC1)c1cc(F)cc(C(F)(F)F)c1` [Compound 487, 3-fluoro-N-((1-(2-(2-oxopyrrolidin-1-yl)ethyl)piperidin-4-yl)methyl)-5-(trifluoromethyl)benzamide], the IC50 was > 10 µM.

Regarding `CS(=O)(=O)c1cc(C(=O)NCC2CCN(CC(=O)N3CCC[C@@H]3C(F)(F)F)CC2)cc(C(F)(F)F)c1` [Compound 589, (R)-3-(methylsulfonyl)-N-((1-(2-oxo-2-(2-(trifluoromethyl)pyrrolidin-1-yl)ethyl)piperidin-4-yl)methyl)-5-(trifluoromethyl) benzamide], the concentration for half-maximal inhibition (IC50) was > 10 µM.

On to `COc1cc(Cl)cc(C(=O)NCC2CCN(CC(=O)N(C)C3(C)CCC3)CC2)c1` [Compound 591, 3-chloro-5-methoxy-N-((1-(2-(methyl(1-methylcyclobutyl)amino)-2-oxoethyl)piperidin-4-yl)methyl)benzamide], for which the IC50 is 0.17 µM.

As for `CN(C(=O)CN1CCC(CNC(=O)c2cc(Cl)cc(Cl)c2)CC1)C1(C)CCC1` [Compound 592, 3,5-dichloro-N-((1-(2-(methyl(1-methylcyclobutyl)amino)-2-oxoethyl)piperidin-4-yl)methyl) benzamide], the 50% inhibitory concentration (IC50) was 0.08 µM.

`CN(C(=O)CN1CCC(CNC(=O)c2cccc(Br)c2)CC1)C1(C)CCC1` [Compound 593, 3-bromo-N-((1-(2-(methyl(1-methylcyclobutyl)amino)-2-oxoethyl)piperidin-4-yl)methyl) benzamide]: the IC50 turned out to be 0.26 µM.

As for `CN(C(=O)CN1CCC(CNC(=O)c2cc(Cl)cc(Br)c2)CC1)C1(C)CCC1` [Compound 595, 3-bromo-5-chloro-N-((1-(2-(methyl(1-methylcyclobutyl)amino)-2-oxoethyl)piperidin-4-yl)methyl)benzamide], the half-maximal inhibitory concentration (IC50) was determined as 0.08 µM.

With `COc1cc(Cl)cc(C(=O)NCC2CCN(CC(=O)N(C)C(C)(C)C)CC2)c1` [Compound 596, N-((1-(2-(tert-butyl(methyl)amino)-2-oxoethyl)piperidin-4-yl)methyl)-3-chloro-5-methoxy-benzamide], the IC50 was determined as 0.16 µM.

As for `CC(C)(C)OC(=O)N1CC(N2CCC(CNC(=O)c3cc(F)cc(Cl)c3)CC2)C1` [Compound 597, tert-buyl 3-(4-((3-chloro-5-fluorobenzamido)methyl)piperidin-1-yl)azetidine-1-carboxylate], the IC50 came to 6.52 µM.

`CC(C)(C)OC(=O)N1CCC(O)(CN2CCC(CNC(=O)c3cc(F)cc(Cl)c3)CC2)CC1` [Compound 598, tert-butyl 4-((4-((3-chloro-5-fluorobenzamido)methyl)piperidin-1-yl)methyl)-4-hydroxypiperidine-1-carboxylate]: the IC50 came out at 1.65 µM.

On to `CC(C)(C)OC(=O)N1CCC(O)(CN2CCC(CNC(=O)c3cc(F)cc(C(F)(F)F)c3)CC2)CC1` [Compound 599, tert-butyl 4-((4-((3-fluoro-5-(trifluoromethyl)benzamido)methyl)piperidin-1-yl)methyl)-4-hydroxy-piperidine-1-carboxylate], for which the IC50 is 1.47 µM.

Turning to `COc1cc(Cl)cc(C(=O)N2CC(N3CCC(CNC(=O)c4cc(F)cc(Cl)c4)CC3)C2)c1` [Compound 600, 3-chloro-N-((1-(1-(3-chloro-5-methoxybenzoyl)azetidin-3-yl)piperidin-4-yl)methyl)-5-fluoro-benzamide], the half-maximal inhibitory concentration (IC50) was found to be 2.05 µM.

With `O=C(NCC1CCN(C2CN(C(=O)c3cc(Cl)cc(Cl)c3)C2)CC1)c1cc(F)cc(Cl)c1` [Compound 601, 3-chloro-N-((1-(1-(3,5-dichlorobenzoyl)azetidin-3-yl)piperidin-4-yl)methyl)-5-fluoro-benzamide], the IC50 amounted to 1.87 µM.

Take `O=C(NCC1CCN(C2CN(C(=O)c3cccc(Br)c3)C2)CC1)c1cc(F)cc(Cl)c1` [Compound 602, N-((1-(1-(3-bromobenzoyl)azetidin-3-yl)piperidin-4-yl)methyl)-3-chloro-5-fluorobenzamide]: the half-maximal inhibitory concentration (IC50) stood at 2.41 µM.

`O=C(NCC1CCN(C2CN(C(=O)c3cccc(OC(F)(F)F)c3)C2)CC1)c1cc(F)cc(Cl)c1` [Compound 603, 3-chloro-5-fluoro-N-((1-(1-(3-(trifluoromethoxy)benzoyl)azetidin-3-yl)piperidin-4-yl)methyl)benzamide]: the IC50 came to 0.81 µM.

On to `O=C(NCC1CCN(C2CN(C(=O)c3cc(F)cc(C(F)(F)F)c3)C2)CC1)c1cc(F)cc(Cl)c1` [Compound 604, 3-chloro-5-fluoro-N-((1-(1-(3-fluoro-5-(trifluoromethyl)benzoyl)azetidin-3-yl)piperidin-4-yl)methyl)benzamide], for which the concentration for half-maximal inhibition (IC50) worked out at 1.9 µM.

On to `O=C(NCC1CCN(C2CN(C(=O)c3cc(F)cc(Cl)c3)C2)CC1)c1cc(F)cc(Cl)c1` [Compound 605, 3-chloro-N-((1-(1-(3-chloro-5-fluorobenzoyl)azetidin-3-yl)piperidin-4-yl)methyl)-5-fluorobenzamide], for which the 50% inhibitory concentration (IC50) worked out at 3.58 µM.

For the compound `O=C(NCC1CCN(C2CN(C(=O)c3cccc(Cl)c3)C2)CC1)c1cc(F)cc(Cl)c1` [Compound 606, 3-chloro-N-((1-(1-(3-chlorobenzoyl)azetidin-3-yl)piperidin-4-yl)methyl)-5-fluorobenzamide], the IC50 is 3.3 µM.
